Test results: ChEMBL document CHEMBL4831477, “Structure-Enabled Discovery of Novel Macrocyclic Inhibitors Targeting Glutaminase 1 Allosteric Binding Site” (J Med Chem, 2021)
In brackets after ≈: the same amount, converted by molar mass. Blank lines part the entries; values can stand above or below the compound they belong to.

Legend:
[1] = molecular target: T1, Glutaminase kidney isoform, mitochondrial (Homo sapiens) (UniProt O94925)
T1 sequence (whole entry): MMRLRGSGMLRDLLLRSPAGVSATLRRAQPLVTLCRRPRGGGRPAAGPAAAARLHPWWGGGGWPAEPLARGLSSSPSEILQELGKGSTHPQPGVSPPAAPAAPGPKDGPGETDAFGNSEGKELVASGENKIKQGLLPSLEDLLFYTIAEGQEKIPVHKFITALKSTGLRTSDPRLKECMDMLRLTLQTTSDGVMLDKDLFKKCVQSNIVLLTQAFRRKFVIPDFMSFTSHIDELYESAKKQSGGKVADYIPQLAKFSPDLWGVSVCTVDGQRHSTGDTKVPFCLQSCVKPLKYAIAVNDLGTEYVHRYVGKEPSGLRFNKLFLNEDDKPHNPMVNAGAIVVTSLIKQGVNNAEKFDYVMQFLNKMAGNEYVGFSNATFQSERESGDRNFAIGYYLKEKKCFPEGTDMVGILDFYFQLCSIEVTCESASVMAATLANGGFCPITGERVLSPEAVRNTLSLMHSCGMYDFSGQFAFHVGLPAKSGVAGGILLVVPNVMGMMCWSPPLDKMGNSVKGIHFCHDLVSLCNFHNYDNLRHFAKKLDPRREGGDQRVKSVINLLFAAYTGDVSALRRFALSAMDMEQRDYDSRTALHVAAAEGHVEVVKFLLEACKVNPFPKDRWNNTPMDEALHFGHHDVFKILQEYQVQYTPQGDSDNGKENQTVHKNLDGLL
Description: Binding affinity to human GLS1 expressed in Escherichia coli strain BL21 (DE3) assessed as change in melting temperature by SYPRO orange dye based protein thermal shift assay

[2] = molecular target: T2, Glutaminase kidney isoform, mitochondrial (Homo sapiens, UniProt O94925); assay: Inhibition of recombinant human GLS1 expressed in Escherichia coli strain BL21 (DE3) preincubated for 10 mins before glutamine addition and measured after 60 mins by bovine liver glutamate dehydrogenase based coupled enzyme assay
T2 sequence (O94925 whole entry): T1 sequence (whole entry)

HCT-116 [3] = assay: Inhibition of colony formation in human HCT-116 cells incubated for 14 days by crystal violet staining based assay; type: functional, cell-based; settings: dose 0.1-2 µM, time 14.0 day
MDA-MB-436 = assay: Antiproliferative activity against human MDA-MB-436 cells assessed as reduction in cell viability incubated for 72 hrs by MTT assay; type: functional, cell-based; settings: MDA-MB-436, 72 h
[4] = Intrinsic aqueous solubility of compound at pH 7.4 by LC-MS based shake-flask method; type: physicochemical; settings: read-out: Intrinsic_solubility
HCT-116 [5] = assay: Antiproliferative activity against human HCT116 cells assessed as reduction in cell viability incubated for 72 hrs by MTT assay; type: functional, cell-based; settings: HCT-116, 72 h
[6] = Distribution coefficient, logD of the compound at pH 7.4 by LC-MS based shake-flask method; type: physicochemical; settings: octanol/water
[7] = Metabolic stability in mouse liver microsomes assessed as clearance at 10 uM preincubated for 5 mins followed by NADPH addition by LC-MS/MS analysis; type: ADME, Microsome; settings: read-out: CLH
[8] = AUC(0 to t) in Sprague-Dawley rat at 200 mg/kg, po measured upto 72 hrs by LC-MS/MS analysis; type: ADME, organism-based; set-up: route oral, dose 200 mg/kg, time <=72; settings: in vivo
[9] = Half life in Sprague-Dawley rat at 5 mg/kg, iv measured upto 72 hrs by LC-MS/MS analysis; type: ADME, organism-based; settings: in vivo
[10] = Oral bioavailability in Sprague-Dawley rat at 200 mg/kg measured upto 72 hrs by LC-MS/MS analysis; type: ADME, organism-based; settings: in vivo
[11] = Metabolic stability in mouse plasma assessed as compound remaining after 2 hrs by LC-MS/MS analysis; type: ADME, cell-free; settings: read-out: Stability
[12] = Metabolic stability in human plasma assessed as compound remaining after 2 hrs by LC-MS/MS analysis; type: ADME, cell-free; settings: read-out: Stability
[13] = AUC(0 to infinity) in Sprague-Dawley rat at 200 mg/kg, po measured upto 72 hrs by LC-MS/MS analysis; type: ADME, organism-based; set-up: route oral, dose 200 mg/kg, time <=72; settings: Sprague-Dawley, in vivo
[14] = Free plasma protein in mouse; type: ADME, cell-free
[15] = fCmax in BALB/c nude mouse plasma xenografted with human HCT-116 cells at 200 mg/kg, po administered twice daily for 28 days; type: ADME, organism-based; settings: in vivo, 672 h, time 28 day
[16] = Metabolic stability in human liver microsomes assessed as clearance at 10 uM preincubated for 5 mins followed by NADPH addition by LC-MS/MS analysis; type: ADME, Microsome; settings: read-out: CLH
[17] = Metabolic stability in human liver microsomes assessed as half life at 10 uM preincubated for 5 mins followed by NADPH addition by LC-MS/MS analysis; type: ADME, Microsome
[18] = Cmax in BALB/c nude mouse plasma xenografted with human HCT-116 cells at 200 mg/kg, po administered twice daily for 28 days; type: ADME, organism-based; set-up: route oral, time 28 day, dose 200 mg/kg
[19] = AUC(0 to infinity) in Sprague-Dawley rat at 5 mg/kg, iv measured upto 72 hrs by LC-MS/MS analysis; type: ADME, organism-based; set-up: route intravenous, dose 5 mg/kg, time <=72; settings: in vivo, 72 h
[20] = Apparent volume of distribution in Sprague-Dawley rat at 200 mg/kg, po measured upto 72 hrs by LC-MS/MS analysis; type: ADME, organism-based; settings: in vivo
[21] = Clearance in Sprague-Dawley rat at 5 mg/kg, iv measured upto 72 hrs by LC-MS/MS analysis; type: ADME, organism-based; settings: in vivo, 5 mg/kg, 72 h
[22] = Clearance in Sprague-Dawley rat at 200 mg/kg, po measured upto 72 hrs by LC-MS/MS analysis; type: ADME, organism-based; settings: Sprague-Dawley, in vivo
[23] = Toxicity in BALB/c nude mouse xenografted with human HCT-116 cells assessed as tolerability at 200 mg/kg, po administered twice daily measured after 28 days; type: organism-based; settings: in vivo, 672 h, time 28 day
[24] = Half life in Sprague-Dawley rat at 200 mg/kg, po measured upto 72 hrs by LC-MS/MS analysis; type: ADME, organism-based; settings: in vivo
[25] = Toxicity in BALB/c nude mouse xenografted with human HCT-116 cells assessed as body weight loss at 200 mg/kg, po administered twice daily for 28 days and measured every 3 days; type: organism-based; settings: in vivo, 672 h, time 28 day
[26] = Cmax in Sprague-Dawley rat at 200 mg/kg, po measured upto 72 hrs by LC-MS/MS analysis; type: ADME, organism-based; set-up: route oral, dose 200 mg/kg, time <=72; settings: in vivo
[27] = AUC(0 to t) in Sprague-Dawley rat at 5 mg/kg, iv measured upto 72 hrs by LC-MS/MS analysis; type: ADME, organism-based; set-up: route intravenous, dose 5 mg/kg, time <=72; settings: in vivo
[28] = Apparent volume of distribution in Sprague-Dawley rat at 5 mg/kg, iv measured upto 72 hrs by LC-MS/MS analysis; type: ADME, organism-based; settings: in vivo, read-out: Vz
HCT-116 [29] = assay: Antitumor activity against human HCT-116 cells xenografted in BALB/c nude mouse assessed as tumor growth inhibition at 200 mg/kg, po administered twice daily measured after 28 days; type: functional; settings: time 28 day
[30] = Metabolic stability in mouse liver microsomes assessed as half life at 10 uM preincubated for 5 mins followed by NADPH addition by LC-MS/MS analysis; type: ADME, Microsome

SMILES: O=C1CCc2cccc(c2)OCC/C=C/CCCC(=O)Nc2nnc(s2)CCCCc2ccc(nn2)N1
ΔTm [1]: 11.7 °C | IC50 [2]: 372 nM | IC50 (MDA-MB-436): 6300 nM | solubility thermodynamic [4]: 2.05 µg/mL (≈ 3.94 µM) | IC50 (HCT-116 [5]): 1450 nM | logD ([6]; read-out: logD): 3.08

SMILES: O=C1CCCC/C=C/CCCCOc2cccc(c2)CCC(=O)Nc2nnc(s2)CCCCc2ccc(nn2)N1
ΔTm [1]: 16.3 °C | IC50 [2]: 123 nM | IC50 (MDA-MB-436): 1820 nM | solubility thermodynamic [4]: 1.97 µg/mL (≈ 3.5 µM) | IC50 (HCT-116 [5]): 680 nM | logD ([6]; read-out: logD): 3.89

SMILES: O=C1Cc2cccc(c2)OCCC/C=C/CCCOc2cccc(c2)CC(=O)NC2=NN=C(CCCCC3=NN=C(N1)S3)S2
ΔTm [1]: 16.7 °C | IC50 [2]: 82 nM | IC50 (MDA-MB-436): 820 nM | solubility thermodynamic [4]: 0.25 µg/mL (≈ 0.395 µM) | IC50 (HCT-116 [5]): 510 nM | logD ([6]; read-out: logD): 3.49

SMILES: O=C(Cc1ccccc1)Nc1nnc(CCSCCc2nnc(NC(=O)Cc3ccccc3)s2)s1
IC50 (MDA-MB-436): 5080 nM | IC50 (HCT-116 [5]): 3910 nM | logD ([6]; read-out: logD): 2.86

SMILES: O=C1Cc2cccc(c2)OCCC/C=C/CCCOc2cccc(c2)CC(=O)Nc2nnc(s2)CCCCc2ccc(nn2)N1
ΔTm [1]: 18.3 °C | IC50 [2]: 28 nM | inhibition (HCT-116 [3]): Dose-Dependent Effect | IC50 (MDA-MB-436): 570 nM | solubility thermodynamic [4]: 1.62 µg/mL (≈ 2.58 µM) | IC50 (HCT-116 [5]): 190 nM | logD ([6]; read-out: logD): 3.48

SMILES: O=C1CC/C=C/CCC(=O)Nc2cccc(c2)CC(=O)Nc2nnc(s2)CCCCc2ccc(nn2)NC(=O)Cc2cccc(c2)N1
ΔTm [1]: 15.9 °C | IC50 [2]: 75 nM | inhibition (HCT-116 [3]): Dose-Dependent Effect | IC50 (MDA-MB-436): 840 nM | solubility thermodynamic [4]: 2.34 µg/mL (≈ 3.58 µM) | IC50 (HCT-116 [5]): 520 nM | logD ([6]; read-out: logD): 2.53

The next compounds have a lower IC50 (MDA-MB-436) than those just listed; values first:

ΔTm [1]: 16.7 °C | IC50 [2]: 25 nM | IC50 (MDA-MB-436): 510 nM | solubility thermodynamic [4]: 1.84 µg/mL (≈ 3.35 µM) | IC50 (HCT-116 [5]): 140 nM | logD ([6]; read-out: logD): 4.29
SMILES: O=C1CCc2cccc(c2)OCCCC/C=C/CCCC(=O)Nc2nnc(s2)CCCCc2ccc(nn2)N1
inhibition (HCT-116 [3]): Dose-Dependent Effect

ΔTm [1]: 16.5 °C | IC50 [2]: 41 nM | IC50 (MDA-MB-436): 510 nM | solubility thermodynamic [4]: 0.34 µg/mL (≈ 0.59 µM) | IC50 (HCT-116 [5]): 280 nM | logD ([6]; read-out: logD): 2.9
SMILES: O=C1Cc2cccc(c2)OC/C=C/COc2cccc(c2)CC(=O)NC2=NN=C(CCCCC3=NN=C(N1)S3)S2
inhibition (HCT-116 [3]): Dose-Dependent Effect

microsomal CLint at 10 µM [7]: 12.3 µL/min/mg | AUC(0-t) at 72 h [8]: 18900 ng·h/mL | half-life [9]: 3.7 h | bioavailability [10]: 19% | remaining at 2 h [11]: 72% | remaining at 2 h [12]: 84% | AUC(0-inf) [13]: 18900 ng·h/mL | fraction unbound [14]: 0.103 | fCmax [15]: 0.31 µM | microsomal CLint at 10 µM [16]: 9.7 µL/min/mg | half-life at 10 µM [17]: 1.4 h | Cmax [18]: 3.01 µM | AUC [19]: 2431 ng·h/mL | Vz [20]: 60.9 L/kg | CL [21]: 135 mL/min/kg | CL/F [22]: 187 mL/min/kg | IC50 (MDA-MB-436): 430 nM | half-life [24]: 3.2 h | Cmax [26]: 1720 ng/mL | AUC(0-t) at 72 h [27]: 2380 ng·h/mL | IC50 (HCT-116 [5]): 110 nM | Vd [28]: 26.1 L/kg | logD [6]: 2.24 | half-life at 10 µM [30]: 1.05 h
SMILES: O=C(Cc1cccc(OC(F)(F)F)c1)Nc1ccc(CCCCc2nnc(NC(=O)Cc3ccccn3)s2)nn1
Activity [23]: Non-Toxic | Activity [25]: Non-Toxic | TGI (HCT-116 [29]): 45%
